Test results reported in ChEMBL document CHEMBL1136459, “New antibacterial tetrahydro-4(2H)-thiopyran and thiomorpholine S-oxide and S,S-dioxide phenyloxazolidinones” (Bioorg Med Chem Lett, 2003).
≈ marks a conversion by molar mass, not a printed value.

Key:
Haemophilus influenzae [1] = assay: In vitro antibacterial activity against Haemophilia influenzae strains 30063 and ATCC 31517 (HI); range is 32-64; assay type: functional
Moraxella catarrhalis [2] = assay: In vitro antibacterial activity against Moraxella catarrhalis strains 30607 and 30603 (MC).; assay type: functional
[3] = test system: Staphylococcus epidermidis; assay: In vitro antibacterial activity against Staphylococcus epidermidis strains UC12084, 30031, and CDC-CNS90 (SE); range is 4-8; assay type: functional
Staphylococcus aureus [4] = assay: In vitro antibacterial activity against Staphylococcus aureus strains UC12673, UC9213, ATCC 29213, and UC9271 (SA); range is 8-32; assay type: functional
Staphylococcus aureus [5] = assay: In vitro antibacterial activity against linezolid-resistant Staphylococcus aureus ATCC 29213 (LRSA).; assay type: functional
Enterococcus faecium = assay: In vitro antibacterial activity against vancomycin-resistant Enterococcus faecium UC12712 (VRE).
Streptococcus pneumoniae [6] = assay: In vitro antibacterial activity against Streptococcus pneumoniae strains ATCC 6305 and 31573 (SPN); range is 4-8
Haemophilus influenzae [7] = assay: In vitro antibacterial activity against Haemophilia influenzae strains 30063 and ATCC 31517 (HI); range is 4-8; assay type: functional
[8] = test system: Staphylococcus epidermidis; assay: In vitro antibacterial activity against Staphylococcus epidermidis strains UC12084, 30031, and CDC-CNS90 (SE); range is 1-2; assay type: functional
Staphylococcus aureus [9] = assay: In vitro antibacterial activity against Staphylococcus aureus strains UC12673, UC9213, ATCC 29213, and UC9271 (SA); range is 4-8; assay type: functional
Streptococcus pneumoniae [10] = assay: In vitro antibacterial activity against Streptococcus pneumoniae strains ATCC6305 and 31573 (SPN).
Haemophilus influenzae [11] = assay: In vitro antibacterial activity against Haemophilia influenzae strains ATCC 30063 and ATCC 31517; assay type: functional
Moraxella catarrhalis [12] = assay: In vitro antibacterial activity against Moraxella catarrhalis strains 30607 and 30603 (MC); range is 8-16; assay type: functional
Staphylococcus aureus [13] = assay: In vitro antibacterial activity against Staphylococcus aureus strains UC12673, UC9213, ATCC 29213, and UC9271 (SA); range is 2-8; assay type: functional
Streptococcus pneumoniae [14] = assay: In vitro antibacterial activity against Streptococcus pneumoniae strains ATCC 6305 and 31573 (SPN).; assay type: functional
Mus musculus [15] = assay: In vivo Efficacy of compound after peroral administration in mouse; assay type: functional; conditions: po
Staphylococcus aureus [16] = assay: In vitro antibacterial activity against Staphylococcus aureus strains UC12673, UC9213, ATCC 29213, and UC9271 (SA); range is 2-4; assay type: functional
Streptococcus pneumoniae [17] = assay: In vitro antibacterial activity against Streptococcus pneumoniae strains ATCC 6305 and 31573 (SPN); range is 0.5-1
Staphylococcus aureus [18] = assay: In vitro antibacterial activity against Staphylococcus aureus strains UC12673, UC9213, ATCC 29213, and UC9271 (SA); assay type: functional
[19] = test system: Staphylococcus epidermidis; assay: In vitro antibacterial activity against Staphylococcus epidermidis strains UC12084, 30031, and CDC-CNS90 (SE); assay type: functional
Haemophilus influenzae [20] = assay: In vitro antibacterial activity against Haemophilia influenzae strains 30063 and ATCC 31517 (HI); range is 32->64; assay type: functional
Moraxella catarrhalis [21] = assay: In vitro antibacterial activity against Moraxella catarrhalis strains 30607 and 30603 (MC); range is 32->64; assay type: functional
Staphylococcus aureus [22] = assay: In vitro antibacterial activity against Staphylococcus aureus strains UC12673, UC9213, ATCC 29213, and UC9271 (SA); range is 16-32; assay type: functional
Haemophilus influenzae [23] = assay: In vitro antibacterial activity against Haemophilia influenzae strains 30063 and ATCC 31517 (HI); range is 4-16; assay type: functional
[24] = test system: Staphylococcus epidermidis; assay: In vitro antibacterial activity against Staphylococcus epidermidis strains UC12084, 30031, and CDC-CNS90 (SE); range is 0.5-1; assay type: functional
Moraxella catarrhalis [25] = assay: In vitro antibacterial activity against Moraxella catarrhalis strains 30607 and 30603 (MC); range is 16-32; assay type: functional
Haemophilus influenzae [26] = assay: In vitro antibacterial activity against Haemophilia influenzae strains 30063 and ATCC 31517 (HI); range is 8-16; assay type: functional
Mus musculus [27] = assay: In vivo Efficacy of compound after peroral administration to protect the Staphylococcus aureus mouse septicemia model; assay type: functional; conditions: po

| Compound | MIC (Moraxella catarrhalis [2]) [µg/mL] | MIC (Staphylococcus aureus [5]) [µg/mL] | MIC (Enterococcus faecium) [µg/mL] | MIC [8] [µg/mL] | MIC (Haemophilus influenzae [11]) [µg/mL] | MIC [19] [µg/mL] | other results |
| --- | --- | --- | --- | --- | --- | --- | --- |
| O=C(NC[C@H]1CN(c2ccc(N3CCS(=O)(=O)CC3)c(F)c2)C(=O)O1)c1csnn1 | 32 (≈ 70.3 µM) | 32 (≈ 70.3 µM) | 16 (≈ 35.1 µM) |  |  |  | MIC (Haemophilus influenzae [1]): 32 µg/mL (≈ 70.3 µM); MIC [3]: 4 µg/mL (≈ 8.78 µM); MIC (Staphylococcus aureus [4]): 8 µg/mL (≈ 17.6 µM); MIC (Streptococcus pneumoniae [6]): 4 µg/mL (≈ 8.78 µM) |
| CC(=O)NC[C@H]1CN(c2ccc(N3CC[S+]([O-])CC3)c(F)c2)C(=O)O1 | 4 (≈ 10.8 µM) | > 64 | 2 (≈ 5.41 µM) | 1 (≈ 2.71 µM) |  |  | MIC (Haemophilus influenzae [7]): > 4 µg/mL; MIC (Staphylococcus aureus [9]): 4 µg/mL (≈ 10.8 µM); MIC (Streptococcus pneumoniae [10]): 1 µg/mL (≈ 2.71 µM) |
| O=C(/C=C/c1ccc(O)cc1)NC[C@H]1CN(c2ccc(C3CC[S+]([O-])CC3)c(F)c2)C(=O)O1 (some centres not stated) |  | > 64 | 4 (≈ 8.46 µM) | 1 (≈ 2.12 µM) | > 64 |  | MIC (Moraxella catarrhalis [12]): 8 µg/mL (≈ 16.9 µM); MIC (Staphylococcus aureus [13]): 2 µg/mL (≈ 4.23 µM) |
| CC(=O)Oc1ccc(/C=C/C(=O)NC[C@H]2CN(c3ccc(C4CC[S+]([O-])CC4)c(F)c3)C(=O)O2)cc1 (some centres not stated) |  |  |  | 1 (≈ 1.94 µM) | 32 (≈ 62.2 µM) |  | MIC (Moraxella catarrhalis [12]): 8 µg/mL (≈ 15.5 µM); MIC (Staphylococcus aureus [13]): 2 µg/mL (≈ 3.89 µM); MIC (Streptococcus pneumoniae [14]): 8 µg/mL (≈ 15.5 µM) |
| O=C(CF)NC[C@H]1CN(c2ccc(C3CC[S+]([O-])CC3)c(F)c2)C(=O)O1 (some centres not stated) | 8 (≈ 20.7 µM) | 32 (≈ 82.8 µM) | 4 (≈ 10.4 µM) | 1 (≈ 2.59 µM) |  |  | MIC (Haemophilus influenzae [7]): 4 µg/mL (≈ 10.4 µM); ED50 (Mus musculus [15]): 3.75 mg/kg; MIC (Staphylococcus aureus [16]): 2 µg/mL (≈ 5.18 µM); MIC (Streptococcus pneumoniae [17]): 0.5 µg/mL (≈ 1.29 µM) |
| COc1ccc(/C=C/C(=O)NC[C@H]2CN(c3ccc(N4CC[S+]([O-])CC4)c(F)c3)C(=O)O2)cc1 | > 64 | > 64 | 4 (≈ 8.2 µM) |  | > 64 | 2 (≈ 4.1 µM) | MIC (Staphylococcus aureus [18]): 4 µg/mL (≈ 8.2 µM) |
| CC(=O)Nc1ccc(/C=C/C(=O)NC[C@H]2CN(c3ccc(N4CC[S+]([O-])CC4)c(F)c3)C(=O)O2)cc1 | 16 (≈ 31.1 µM) | > 64 | 8 (≈ 15.5 µM) | 1 (≈ 1.94 µM) | > 64 |  | MIC (Staphylococcus aureus [9]): 4 µg/mL (≈ 7.77 µM) |
| O=C(/C=C/c1ccc(Cl)cc1)NC[C@H]1CN(c2ccc(N3CC[S+]([O-])CC3)c(F)c2)C(=O)O1 | 8 (≈ 16.3 µM) | 8 (≈ 16.3 µM) | 2 (≈ 4.07 µM) |  |  | 1 (≈ 2.03 µM) | MIC (Haemophilus influenzae [20]): 32 µg/mL (≈ 65 µM); MIC (Staphylococcus aureus [16]): 2 µg/mL (≈ 4.07 µM) |
| O=C1O[C@@H](CNC(=O)C(F)(F)F)CN1c1ccc(N2CCS(=O)(=O)CC2)c(F)c1 |  | 16 (≈ 36.4 µM) | 16 (≈ 36.4 µM) |  | ≥ 64 | 8 (≈ 18.2 µM) | MIC (Moraxella catarrhalis [21]): 32 µg/mL (≈ 72.8 µM); MIC (Staphylococcus aureus [22]): 16 µg/mL (≈ 36.4 µM) |
| O=C(CF)NC[C@H]1CN(c2ccc(C3CCS(=O)(=O)CC3)c(F)c2)C(=O)O1 | > 8 | 64 (≈ 159 µM) | 2 (≈ 4.97 µM) |  |  |  | MIC (Haemophilus influenzae [23]): > 4 µg/mL; MIC (Staphylococcus aureus [18]): 2 µg/mL (≈ 4.97 µM); MIC [24]: 0.5 µg/mL (≈ 1.24 µM); MIC (Streptococcus pneumoniae [10]): 0.5 µg/mL (≈ 1.24 µM) |
| COCC(=O)NC[C@H]1CN(c2ccc(N3CC[S+]([O-])CC3)c(F)c2)C(=O)O1 |  | > 64 | 16 (≈ 40.1 µM) |  |  |  | MIC (Haemophilus influenzae [20]): 32 µg/mL (≈ 80.1 µM); MIC (Moraxella catarrhalis [25]): 16 µg/mL (≈ 40.1 µM); MIC (Staphylococcus aureus [22]): 16 µg/mL (≈ 40.1 µM); MIC [3]: 4 µg/mL (≈ 10 µM); MIC (Streptococcus pneumoniae [6]): 4 µg/mL (≈ 10 µM) |
| CC(=O)NC[C@H]1CN(c2ccc(N3CCOCC3)c(F)c2)C(=O)O1 [LINEZOLID] |  | 64 (≈ 190 µM) |  | 1 (≈ 2.96 µM) |  |  | MIC (Haemophilus influenzae [26]): > 8 µg/mL; ED50 (Mus musculus [27]): 5 mg/kg |
| O=C1O[C@@H](CNC(=O)C(F)(F)F)CN1c1ccc(N2CC[S+]([O-])CC2)c(F)c1 | > 64 | > 64 | > 64 |  | > 64 | > 64 | MIC (Staphylococcus aureus [18]): > 64 µg/mL; MIC (Streptococcus pneumoniae [10]): > 64 µg/mL |
